Results taken from PubChem BioAssay (NCI).
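96-well plates; 48 h exposure; 5 concentrations. Endpoints by linear interpolation between flanking doses. Not reached: highest tested concentration assigned. The concentration for 50% growth inhibition is given as GI50. TGI marks complete inhibition of growth.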

Tests used:
Experiment in all cases: inhibition of tumour cell growth, NCI panel, 48 h
786-0 renal = system: 786-0 renal
A498 renal = system: A498 renal
A549 NSCLC = system: A549 NSCLC
ACHN renal = system: ACHN renal
BT-549 breast = system: BT-549 breast
CAKI-1 renal = system: CAKI-1 renal
CCRF-CEM leukemia = system: CCRF-CEM leukemia
COLO 205 colon = system: COLO 205 colon
DU-145 prostate = system: DU-145 prostate
HCC-2998 colon = system: HCC-2998 colon
HCT-116 colon = system: HCT-116 colon
HCT-15 colon = system: HCT-15 colon
HOP-62 NSCLC = system: HOP-62 NSCLC
HOP-92 NSCLC = system: HOP-92 NSCLC
HS 578T breast = system: HS 578T breast
HT29 colon = system: HT29 colon
IGROV1 ovarian = system: IGROV1 ovarian
K-562 leukemia = system: K-562 leukemia
KM12 colon = system: KM12 colon
LOX IMVI melanoma = system: LOX IMVI melanoma
M14 melanoma = system: M14 melanoma
MALME-3M melanoma = system: MALME-3M melanoma
MCF7 breast = system: MCF7 breast
MDA-MB-231 breast = system: MDA-MB-231 breast
MDA-MB-435 = system: MDA-MB-435
MOLT-4 leukemia = system: MOLT-4 leukemia
NCI-H226 lung = system: NCI-H226 lung
NCI-H23 lung = system: NCI-H23 lung
NCI-H460 lung = system: NCI-H460 lung
NCI-H522 lung = system: NCI-H522 lung
NCI/ADR-RES ovarian = system: NCI/ADR-RES ovarian
OVCAR-3 ovarian = system: OVCAR-3 ovarian
OVCAR-4 ovarian = system: OVCAR-4 ovarian
OVCAR-5 ovarian = system: OVCAR-5 ovarian
OVCAR-8 ovarian = system: OVCAR-8 ovarian
PC-3 prostate = system: PC-3 prostate
RPMI-8226 leukemia = system: RPMI-8226 leukemia
RXF 393 renal = system: RXF 393 renal
SF-268 CNS = system: SF-268 CNS
SF-295 CNS = system: SF-295 CNS
SF-539 CNS = system: SF-539 CNS
SK-MEL-2 melanoma = system: SK-MEL-2 melanoma
SK-MEL-28 melanoma = system: SK-MEL-28 melanoma
SK-MEL-5 melanoma = system: SK-MEL-5 melanoma
SK-OV-3 ovarian = system: SK-OV-3 ovarian
SN12C renal = system: SN12C renal
SNB-19 CNS = system: SNB-19 CNS
SNB-75 CNS = system: SNB-75 CNS
SR leukemia = system: SR leukemia
SW-620 colon = system: SW-620 colon
T-47D breast = system: T-47D breast
TK-10 renal = system: TK-10 renal
U251 CNS = system: U251 CNS
UACC-257 melanoma = system: UACC-257 melanoma
UACC-62 melanoma = system: UACC-62 melanoma
UO-31 renal = system: UO-31 renal

Compound O=C(Nc1ccc(OCc2nnc(-c3ccc(Cl)cc3)o2)c(F)c1)Nc1ccc(Cl)c(Cl)c1 has a GI50 (786-0 renal) of 12.5 µM, a TGI (786-0 renal) of 42.7 µM and a GI50 (A498 renal) of 1.56 µM. It also gave a TGI (A498 renal) of 21.9 µM, a GI50 (A549 NSCLC) of 6.07 µM and a TGI (A549 NSCLC) of 47.1 µM. It also gave a GI50 (ACHN renal) of 4.95 µM, a TGI (ACHN renal) of 62.6 µM and a GI50 (BT-549 breast) of 7.11 µM. For the same compound, the TGI (BT-549 breast) was 29.7 µM, the GI50 (CAKI-1 renal) was 21.7 µM and the TGI (CAKI-1 renal) was > 100 µM. It also gave a GI50 (CCRF-CEM leukemia) of 7.09 µM, a TGI (CCRF-CEM leukemia) of 68.6 µM and a GI50 (COLO 205 colon) of 6.94 µM. The TGI (COLO 205 colon) was > 100 µM, the GI50 (DU-145 prostate) was 5.07 µM and the TGI (DU-145 prostate) was 21.3 µM. The GI50 (HCC-2998 colon) was 20.7 µM, the TGI (HCC-2998 colon) was > 100 µM and the GI50 (HCT-116 colon) was 5.01 µM. The TGI (HCT-116 colon) was > 100 µM, the GI50 (HCT-15 colon) was 15 µM and the TGI (HCT-15 colon) was > 100 µM. It also gave a GI50 (HOP-62 NSCLC) of 3.6 µM, a TGI (HOP-62 NSCLC) of 19.5 µM and a GI50 (HOP-92 NSCLC) of 2.39 µM. It also gave a TGI (HOP-92 NSCLC) of 8.27 µM, a GI50 (HS 578T breast) of 1.95 µM and a TGI (HS 578T breast) of 8.53 µM. For the same compound, the GI50 (HT29 colon) was 6.24 µM, the TGI (HT29 colon) was > 100 µM and the GI50 (IGROV1 ovarian) was 12.2 µM. The TGI (IGROV1 ovarian) was 52.3 µM, the GI50 (K-562 leukemia) was 3.77 µM and the TGI (K-562 leukemia) was > 100 µM. For the same compound, the GI50 (KM12 colon) was 16.5 µM, the TGI (KM12 colon) was > 100 µM and the GI50 (LOX IMVI melanoma) was 3.3 µM. The TGI (LOX IMVI melanoma) was 13.2 µM, the GI50 (M14 melanoma) was 11.3 µM and the TGI (M14 melanoma) was > 100 µM. It also gave a GI50 (MALME-3M melanoma) of 2.76 µM, a TGI (MALME-3M melanoma) of 8.77 µM and a GI50 (MCF7 breast) of 5.62 µM. For the same compound, the TGI (MCF7 breast) was > 100 µM, the GI50 (MDA-MB-231 breast) was 5.39 µM and the TGI (MDA-MB-231 breast) was 41.1 µM. The GI50 (MDA-MB-435) was 9.55 µM, the TGI (MDA-MB-435) was > 100 µM and the GI50 (MOLT-4 leukemia) was 12.9 µM. The TGI (MOLT-4 leukemia) was 53.1 µM, the GI50 (NCI-H226 lung) was 5.94 µM and the TGI (NCI-H226 lung) was 56.1 µM. It also gave a GI50 (NCI-H23 lung) of 4.62 µM, a TGI (NCI-H23 lung) of 20.6 µM and a GI50 (NCI-H460 lung) of 3.9 µM. The TGI (NCI-H460 lung) was 25 µM, the GI50 (NCI-H522 lung) was 6.06 µM and the TGI (NCI-H522 lung) was 52.1 µM. It also gave a GI50 (NCI/ADR-RES ovarian) of 10 µM, a TGI (NCI/ADR-RES ovarian) of 41.3 µM and a GI50 (OVCAR-3 ovarian) of 10.7 µM. The TGI (OVCAR-3 ovarian) was 35 µM, the GI50 (OVCAR-4 ovarian) was 2.99 µM and the TGI (OVCAR-4 ovarian) was 14.1 µM. For the same compound, the GI50 (OVCAR-5 ovarian) was 22.5 µM, the TGI (OVCAR-5 ovarian) was > 100 µM and the GI50 (OVCAR-8 ovarian) was 8.56 µM. For the same compound, the TGI (OVCAR-8 ovarian) was > 100 µM, the GI50 (PC-3 prostate) was 6.16 µM and the TGI (PC-3 prostate) was 29.9 µM. The GI50 (RPMI-8226 leukemia) was 10.7 µM, the TGI (RPMI-8226 leukemia) was 56.6 µM and the GI50 (RXF 393 renal) was 6.78 µM. It also gave a TGI (RXF 393 renal) of 24.2 µM, a GI50 (SF-268 CNS) of 7.58 µM and a TGI (SF-268 CNS) of 35.8 µM. It also gave a GI50 (SF-295 CNS) of 3.63 µM, a TGI (SF-295 CNS) of 19.5 µM and a GI50 (SF-539 CNS) of 6.92 µM. It also gave a TGI (SF-539 CNS) of 27.7 µM, a GI50 (SK-MEL-2 melanoma) of 9.23 µM and a TGI (SK-MEL-2 melanoma) of 37 µM. It also gave a GI50 (SK-MEL-28 melanoma) of 5.17 µM, a TGI (SK-MEL-28 melanoma) of 28.6 µM and a GI50 (SK-MEL-5 melanoma) of 6.6 µM. It also gave a TGI (SK-MEL-5 melanoma) of 45.4 µM, a GI50 (SK-OV-3 ovarian) of 9.09 µM and a TGI (SK-OV-3 ovarian) of 40.6 µM. The GI50 (SN12C renal) was 11.3 µM, the TGI (SN12C renal) was > 100 µM and the GI50 (SNB-19 CNS) was 5.97 µM. It also gave a TGI (SNB-19 CNS) of 45.5 µM, a GI50 (SNB-75 CNS) of 1.72 µM and a TGI (SNB-75 CNS) of 4.88 µM. It also gave a GI50 (SR leukemia) of 2.09 µM, a TGI (SR leukemia) of 7.57 µM and a GI50 (SW-620 colon) of 6.77 µM. For the same compound, the TGI (SW-620 colon) was 67.9 µM, the GI50 (T-47D breast) was 2.83 µM and the TGI (T-47D breast) was 26.5 µM. It also gave a GI50 (TK-10 renal) of 4.78 µM, a TGI (TK-10 renal) of 22.9 µM and a GI50 (U251 CNS) of 4.08 µM. The TGI (U251 CNS) was 25 µM, the GI50 (UACC-257 melanoma) was 10.6 µM and the TGI (UACC-257 melanoma) was > 100 µM. The GI50 (UACC-62 melanoma) was 5.84 µM, the TGI (UACC-62 melanoma) was 39 µM and the GI50 (UO-31 renal) was 13.5 µM. The TGI (UO-31 renal) was 49.3 µM.
